In article PMC5799214, “A Novel Mitochondrial Serine O-Acetyltransferase, OpSAT1, Plays a Critical Role in Sulfur Metabolism in the Thermotolerant Methylotrophic Yeast Ogataea parapolymorpha” (Scientific Reports, 2018):

Key:
[1] = biological target: T1, CysE (GST-CysE) (Escherichia coli, UniProt P0A9D4); assay: SAT activity, decrease of OD232 (acetyl-CoA consumption); format: biochemical; conditions: read-out: % residual activity at 1 μM
T1 construct: template plasmid pCysE
T1 sequence (P0A9D4 2-273): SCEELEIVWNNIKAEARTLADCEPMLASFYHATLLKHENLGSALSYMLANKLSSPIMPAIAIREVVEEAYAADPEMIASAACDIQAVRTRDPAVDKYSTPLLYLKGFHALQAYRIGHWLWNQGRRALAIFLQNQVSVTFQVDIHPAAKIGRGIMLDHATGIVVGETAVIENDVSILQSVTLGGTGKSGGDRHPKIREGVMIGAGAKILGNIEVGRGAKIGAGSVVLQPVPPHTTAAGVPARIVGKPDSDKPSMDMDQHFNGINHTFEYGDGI

[2] = biological target: T2, OpSat1p (GST-OpSat1p) (Ogataea parapolymorpha, UniProt W1Q867); assay: as above; format: biochemical; conditions: read-out: concentration of cysteine at 50% inhibition
T2 construct: gene HPODL_02797; alpha/beta hydrolase 1 domain
T2 sequence (W1Q867 2-499): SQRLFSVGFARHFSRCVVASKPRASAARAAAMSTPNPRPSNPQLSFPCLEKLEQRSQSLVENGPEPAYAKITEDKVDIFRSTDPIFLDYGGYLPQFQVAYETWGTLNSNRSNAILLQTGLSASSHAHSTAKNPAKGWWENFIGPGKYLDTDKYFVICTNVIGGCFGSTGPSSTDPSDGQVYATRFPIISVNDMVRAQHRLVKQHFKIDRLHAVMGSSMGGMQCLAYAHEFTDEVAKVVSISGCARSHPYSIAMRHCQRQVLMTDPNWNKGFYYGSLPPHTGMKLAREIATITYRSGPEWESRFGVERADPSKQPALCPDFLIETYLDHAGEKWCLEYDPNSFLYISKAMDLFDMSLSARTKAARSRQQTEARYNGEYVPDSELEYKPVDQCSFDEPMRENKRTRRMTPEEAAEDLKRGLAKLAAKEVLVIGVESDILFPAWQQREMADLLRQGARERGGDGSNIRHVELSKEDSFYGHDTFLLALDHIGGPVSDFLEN

remaining activity at 1 µM [1]: ~40%
IC50 [2]: ~250 µM
SMILES: N[C@@H](CS)C(=O)O [L-cysteine]
